Results from the NIST ThermoML archive (doi:10.1021/acs.jced.6b00096).
± gives the expanded uncertainty stated by the source.

Legend:
[1] = xn = mol fraction of the nth substance listed; settings: 100 kPa, Liquid; for viscosity: Falling or rolling sphere viscometry; for mass density: Vibrating tube method
[2] = 298.15 K; 100 kPa; Liquid; Falling or rolling sphere viscometry
[3] = 298.15 K; 100 kPa; Liquid; Vibrating tube method
[4] = 318.15 K; 100 kPa; Liquid; Falling or rolling sphere viscometry
[5] = 318.15 K; 100 kPa; Liquid; Vibrating tube method

CC(C)(C)O [2-methylpropan-2-ol] + CCO
viscosity ([1]; 298.15 K, x2 = 0.045): 4.314 ± 0.058 mPa·s | viscosity ([1]; 298.15 K, x2 = 0.082): 4.195 ± 0.056 mPa·s | viscosity ([1]; 298.15 K, x2 = 0.1518): 3.939 ± 0.052 mPa·s | viscosity ([1]; 298.15 K, x2 = 0.287): 3.395 ± 0.044 mPa·s | viscosity ([1]; 298.15 K, x2 = 0.4085): 2.86 ± 0.037 mPa·s | viscosity ([1]; 298.15 K, x2 = 0.5174): 2.384 ± 0.03 mPa·s | viscosity ([1]; 298.15 K, x2 = 0.6167): 2.026 ± 0.026 mPa·s | viscosity ([1]; 298.15 K, x2 = 0.707): 1.749 ± 0.022 mPa·s | viscosity ([1]; 298.15 K, x2 = 0.7896): 1.532 ± 0.019 mPa·s | viscosity ([1]; 298.15 K, x2 = 0.8654): 1.349 ± 0.017 mPa·s | viscosity ([1]; 298.15 K, x2 = 0.9355): 1.205 ± 0.015 mPa·s | mass density ([1]; 298.15 K, x2 = 0.045): 781.92 ± 1.6 kg/m3 | mass density ([1]; 298.15 K, x2 = 0.082): 782.51 ± 1.6 kg/m3 | mass density ([1]; 298.15 K, x2 = 0.1518): 783.11 ± 1.6 kg/m3 | mass density ([1]; 298.15 K, x2 = 0.287): 783.69 ± 1.6 kg/m3 | mass density ([1]; 298.15 K, x2 = 0.4085): 783.95 ± 1.6 kg/m3 | mass density ([1]; 298.15 K, x2 = 0.5174): 784.15 ± 1.6 kg/m3 | mass density ([1]; 298.15 K, x2 = 0.6167): 784.31 ± 1.6 kg/m3 | mass density ([1]; 298.15 K, x2 = 0.707): 784.42 ± 1.6 kg/m3 | mass density ([1]; 298.15 K, x2 = 0.7896): 784.55 ± 1.6 kg/m3 | mass density ([1]; 298.15 K, x2 = 0.8654): 784.72 ± 1.6 kg/m3 | mass density ([1]; 298.15 K, x2 = 0.9355): 784.85 ± 1.6 kg/m3 | viscosity ([1]; 318.15 K, x2 = 0.045): 1.724 ± 0.026 mPa·s | viscosity ([1]; 318.15 K, x2 = 0.082): 1.721 ± 0.026 mPa·s | viscosity ([1]; 318.15 K, x2 = 0.1516): 1.692 ± 0.025 mPa·s | viscosity ([1]; 318.15 K, x2 = 0.2872): 1.577 ± 0.022 mPa·s | viscosity ([1]; 318.15 K, x2 = 0.4083): 1.442 ± 0.02 mPa·s | viscosity ([1]; 318.15 K, x2 = 0.5174): 1.308 ± 0.017 mPa·s | viscosity ([1]; 318.15 K, x2 = 0.6168): 1.188 ± 0.015 mPa·s | viscosity ([1]; 318.15 K, x2 = 0.7072): 1.078 ± 0.014 mPa·s | viscosity ([1]; 318.15 K, x2 = 0.7896): 0.983 ± 0.012 mPa·s | viscosity ([1]; 318.15 K, x2 = 0.8656): 0.895 ± 0.011 mPa·s | viscosity ([1]; 318.15 K, x2 = 0.9355): 0.817 ± 0.01 mPa·s | mass density ([1]; 318.15 K, x2 = 0.045): 761.37 ± 1.5 kg/m3 | mass density ([1]; 318.15 K, x2 = 0.082): 762.26 ± 1.5 kg/m3 | mass density ([1]; 318.15 K, x2 = 0.1516): 763.35 ± 1.5 kg/m3 | mass density ([1]; 318.15 K, x2 = 0.2872): 764.69 ± 1.5 kg/m3 | mass density ([1]; 318.15 K, x2 = 0.4083): 765.58 ± 1.5 kg/m3 | mass density ([1]; 318.15 K, x2 = 0.5174): 766.2 ± 1.5 kg/m3 | mass density ([1]; 318.15 K, x2 = 0.6168): 766.59 ± 1.5 kg/m3 | mass density ([1]; 318.15 K, x2 = 0.7072): 766.91 ± 1.5 kg/m3 | mass density ([1]; 318.15 K, x2 = 0.7896): 767.15 ± 1.5 kg/m3 | mass density ([1]; 318.15 K, x2 = 0.8656): 767.35 ± 1.5 kg/m3 | mass density ([1]; 318.15 K, x2 = 0.9355): 767.46 ± 1.5 kg/m3

Cc1ccccc1 [toluene]
viscosity [2]: 0.533 ± 0.007 mPa·s | mass density [3]: 862.01 ± 1.7 kg/m3 | viscosity [4]: 0.447 ± 0.006 mPa·s | mass density [5]: 843.51 ± 1.7 kg/m3

CCO [ethanol]
viscosity [2]: 1.084 ± 0.013 mPa·s | mass density [3]: 785.01 ± 1.6 kg/m3 | viscosity [4]: 0.752 ± 0.009 mPa·s | mass density [5]: 767.54 ± 1.5 kg/m3

Cc1ccccc1 [toluene] + CCO
viscosity ([1]; 298.15 K, x2 = 0.1005): 0.549 ± 0.007 mPa·s | viscosity ([1]; 298.15 K, x2 = 0.2013): 0.558 ± 0.007 mPa·s | viscosity ([1]; 298.15 K, x2 = 0.3002): 0.577 ± 0.007 mPa·s | viscosity ([1]; 298.15 K, x2 = 0.4003): 0.606 ± 0.008 mPa·s | viscosity ([1]; 298.15 K, x2 = 0.5001): 0.644 ± 0.008 mPa·s | viscosity ([1]; 298.15 K, x2 = 0.6001): 0.693 ± 0.009 mPa·s | viscosity ([1]; 298.15 K, x2 = 0.7): 0.754 ± 0.009 mPa·s | viscosity ([1]; 298.15 K, x2 = 0.8): 0.831 ± 0.01 mPa·s | viscosity ([1]; 298.15 K, x2 = 0.9): 0.926 ± 0.011 mPa·s | mass density ([1]; 298.15 K, x2 = 0.1003): 857.16 ± 1.7 kg/m3 | mass density ([1]; 298.15 K, x2 = 0.2002): 852.38 ± 1.7 kg/m3 | mass density ([1]; 298.15 K, x2 = 0.3): 847.27 ± 1.7 kg/m3 | mass density ([1]; 298.15 K, x2 = 0.4): 841.65 ± 1.7 kg/m3 | mass density ([1]; 298.15 K, x2 = 0.5002): 835.35 ± 1.7 kg/m3 | mass density ([1]; 298.15 K, x2 = 0.6001): 828.22 ± 1.7 kg/m3 | mass density ([1]; 298.15 K, x2 = 0.7): 819.95 ± 1.6 kg/m3 | mass density ([1]; 298.15 K, x2 = 0.8): 810.35 ± 1.6 kg/m3 | mass density ([1]; 298.15 K, x2 = 0.9): 798.87 ± 1.6 kg/m3 | viscosity ([1]; 318.15 K, x2 = 0.1004): 0.439 ± 0.005 mPa·s | viscosity ([1]; 318.15 K, x2 = 0.2004): 0.442 ± 0.006 mPa·s | viscosity ([1]; 318.15 K, x2 = 0.2997): 0.449 ± 0.006 mPa·s | viscosity ([1]; 318.15 K, x2 = 0.4007): 0.464 ± 0.006 mPa·s | viscosity ([1]; 318.15 K, x2 = 0.5007): 0.483 ± 0.006 mPa·s | viscosity ([1]; 318.15 K, x2 = 0.5998): 0.508 ± 0.006 mPa·s | viscosity ([1]; 318.15 K, x2 = 0.6998): 0.542 ± 0.007 mPa·s | viscosity ([1]; 318.15 K, x2 = 0.7999): 0.585 ± 0.007 mPa·s | viscosity ([1]; 318.15 K, x2 = 0.8998): 0.641 ± 0.008 mPa·s | mass density ([1]; 318.15 K, x2 = 0.1004): 838.1 ± 1.7 kg/m3 | mass density ([1]; 318.15 K, x2 = 0.2002): 833.2 ± 1.7 kg/m3 | mass density ([1]; 318.15 K, x2 = 0.3003): 828.01 ± 1.7 kg/m3 | mass density ([1]; 318.15 K, x2 = 0.4003): 822.39 ± 1.6 kg/m3 | mass density ([1]; 318.15 K, x2 = 0.5): 816.2 ± 1.6 kg/m3 | mass density ([1]; 318.15 K, x2 = 0.6001): 809.19 ± 1.6 kg/m3 | mass density ([1]; 318.15 K, x2 = 0.7001): 801.21 ± 1.6 kg/m3 | mass density ([1]; 318.15 K, x2 = 0.7996): 791.97 ± 1.6 kg/m3 | mass density ([1]; 318.15 K, x2 = 0.9): 780.91 ± 1.6 kg/m3

CC(C)(C)O [2-methylpropan-2-ol]
viscosity (298.15 K; 100 kPa; Metastable liquid; Falling or rolling sphere viscometry): 4.426 ± 0.06 mPa·s | mass density (298.15 K; 100 kPa; Metastable liquid; Vibrating tube method): 780.99 ± 1.6 kg/m3 | viscosity (318.15 K; 100 kPa; Falling or rolling sphere viscometry; Liquid): 1.706 ± 0.026 mPa·s | mass density (318.15 K; 100 kPa; Vibrating tube method; Liquid): 759.66 ± 1.5 kg/m3

CC(C)(C)O [2-methylpropan-2-ol] + Cc1ccccc1
viscosity ([1]; 298.15 K, x2 = 0.0822): 2.579 ± 0.035 mPa·s | viscosity ([1]; 298.15 K, x2 = 0.1678): 1.625 ± 0.022 mPa·s | viscosity ([1]; 298.15 K, x2 = 0.2564): 1.184 ± 0.016 mPa·s | viscosity ([1]; 298.15 K, x2 = 0.3488): 0.991 ± 0.013 mPa·s | viscosity ([1]; 298.15 K, x2 = 0.4458): 0.868 ± 0.011 mPa·s | viscosity ([1]; 298.15 K, x2 = 0.5468): 0.744 ± 0.009 mPa·s | viscosity ([1]; 298.15 K, x2 = 0.6525): 0.624 ± 0.008 mPa·s | viscosity ([1]; 298.15 K, x2 = 0.7621): 0.562 ± 0.007 mPa·s | viscosity ([1]; 298.15 K, x2 = 0.8787): 0.561 ± 0.007 mPa·s | mass density ([1]; 298.15 K, x2 = 0.0822): 786.59 ± 1.6 kg/m3 | mass density ([1]; 298.15 K, x2 = 0.1678): 792.96 ± 1.6 kg/m3 | mass density ([1]; 298.15 K, x2 = 0.2564): 799.78 ± 1.6 kg/m3 | mass density ([1]; 298.15 K, x2 = 0.3488): 807.09 ± 1.6 kg/m3 | mass density ([1]; 298.15 K, x2 = 0.4458): 815 ± 1.6 kg/m3 | mass density ([1]; 298.15 K, x2 = 0.5468): 823.34 ± 1.6 kg/m3 | mass density ([1]; 298.15 K, x2 = 0.6525): 832.08 ± 1.7 kg/m3 | mass density ([1]; 298.15 K, x2 = 0.7621): 841.26 ± 1.7 kg/m3 | mass density ([1]; 298.15 K, x2 = 0.8787): 851.02 ± 1.7 kg/m3 | viscosity ([1]; 318.15 K, x2 = 0.0822): 1.171 ± 0.017 mPa·s | viscosity ([1]; 318.15 K, x2 = 0.1676): 0.899 ± 0.012 mPa·s | viscosity ([1]; 318.15 K, x2 = 0.2565): 0.744 ± 0.01 mPa·s | viscosity ([1]; 318.15 K, x2 = 0.3491): 0.649 ± 0.009 mPa·s | viscosity ([1]; 318.15 K, x2 = 0.4459): 0.582 ± 0.008 mPa·s | viscosity ([1]; 318.15 K, x2 = 0.5467): 0.528 ± 0.007 mPa·s | viscosity ([1]; 318.15 K, x2 = 0.6524): 0.486 ± 0.006 mPa·s | viscosity ([1]; 318.15 K, x2 = 0.7627): 0.461 ± 0.006 mPa·s | viscosity ([1]; 318.15 K, x2 = 0.8788): 0.454 ± 0.006 mPa·s | mass density ([1]; 318.15 K, x2 = 0.0822): 765.3 ± 1.5 kg/m3 | mass density ([1]; 318.15 K, x2 = 0.1676): 771.88 ± 1.6 kg/m3 | mass density ([1]; 318.15 K, x2 = 0.2565): 778.96 ± 1.6 kg/m3 | mass density ([1]; 318.15 K, x2 = 0.3491): 786.64 ± 1.6 kg/m3 | mass density ([1]; 318.15 K, x2 = 0.4459): 794.84 ± 1.6 kg/m3 | mass density ([1]; 318.15 K, x2 = 0.5467): 803.43 ± 1.6 kg/m3 | mass density ([1]; 318.15 K, x2 = 0.6524): 812.43 ± 1.6 kg/m3 | mass density ([1]; 318.15 K, x2 = 0.7627): 821.89 ± 1.6 kg/m3 | mass density ([1]; 318.15 K, x2 = 0.8788): 832.02 ± 1.7 kg/m3
